According to paper PMC7377361, “Pressurized DNA state inside herpes capsids—A novel antiviral target” (PLoS Pathogens, 2020):
Where no end group is shown, it is not given here.

Columns and labels:
[1] = Cytotoxicity assay in uninfected HFF-1 cells; conditions: human
Procedure: In parallel, for each DNA condensing compound, we determined the cytotoxicity concentration (CC50 value) using standard in vitro cellular replication assays in human foreskin fibroblast (HFF) cells (used as a standard for herpesvirus replication in vitro assays for antiviral compound tests)[48]. Cytotoxicity assays were performed on a parallel set of six-well plates containing confluent monolayers of HFF-1 cells at the same cell amount as used for antiviral plaque reduction assays for EC50 value determination, but cells were uninfected[48].
Cytotoxicity assays were performed on a parallel set of six-well plates containing HFF-1 cells that received the same compound concentrations as used for the antiviral assays but remained uninfected. […]
Each compound was evaluated in a standard cytotoxicity assay by standard methods [100]. […] The optical density was then determined at 550 nm and CC50 values were interpolated from the experimental data.
The inhibition of either Vero cell or HFF-1 cell proliferation was used to refine estimates of cytotoxicity for the compounds and was performed according to standard procedures [101]. […] The plates were incubated for 72 h at 37°C; the cells were then dislodged with trypsin and counted on a Beckman Coulter Counter. […]

[2] = In vivo toxicity studies in mice (NIH/NIAID preclinical service); conditions: for %Lymphocyte / Hematocrit / WBC / AST / Alb:Glob Ratio / Albumin / Amylase / Bile Acids / Cholesterol / Creatine Kinase / GGT / Globin / Total Protein / Triglyceride / BUN / Ca:Phos Ratio / Calcium / Chloride / Glucose / K / Na / Na:K Ratio / Phosphorus / Uric Acid: Mean; for %Lymphocyte / Hematocrit / WBC: CBC (n=1-2); for AST / Alb:Glob Ratio / Albumin / Amylase / Bile Acids / Cholesterol / Creatine Kinase / GGT / Globin / Total Protein / Triglyceride: LIVER (n=5); for BUN / Ca:Phos Ratio / Calcium / Chloride / Glucose / K / Na / Na:K Ratio / Phosphorus / Uric Acid: RENAL (n=5)
Procedure: A control group was treated with PBS. […] No signs of distress or significant weight loss were observed during the 4 days of treatment. […]
B. In vivo toxicity studies in mice for bPEI 600 and DAB-Am-4. Experiments were conducted through NIAID/NIH preclinical service agreement No HHSN272201700017I/ […]
Procedures and Endpoints:
1- Baseline weights of all mice
2- IP treatment (twice a day, for 4 days)
3- Daily assessment of weights and condition
4- All animals sacrificed the following morning after the last evening treatment 5- Blood samples collected by IC stick for lab tests (liver, spleen and blood profiles) 6- Internal organs examined for signs of gross tissue toxicity
1. Toxicity evaluation of bPEI 600 Da in mice.
A toxicity screen was performed in uninfected mice treated with 3 doses of bPEI 600 Da, administered for 4 days. In this study, 3 doses of 5, 10 and 25 mg/kg/day were administered twice daily IP for 4 days (n=4/group). A control group was treated with the vehicle (PBS). The mice were examined daily and the weights and general condition were recorded daily. To examine liver, renal and blood function parameters, blood samples were obtained by intracardiac puncture at the end of the study (the following day after last dose) and the mice were sacrificed to examine the internal organs for signs of gross tissue toxicity.
The weights were recorded
In order to confirm the results of the lab results obtained in the toxicity study, a second group of slightly larger mice were treated with the high and the low doses of bPEI 600 Da (25 mg/kg and 5 mg/kg, n=6/group) and the vehicle control (PBS, n=4) for 4 days. Blood samples were collected at the end of the study for liver and renal chemistry profiles. The results are shown in the next […]
REN AL PBS 5 mg/kg 25 mg/kg
LIVER PBS 5 mg/kg 25 mg/kg
Al b:Gl ob R a ti o 1 1 1 […]
obtained from the second group of mice treated with bPEI 600 Da for 4 days.
No signs of distress or significant weight loss were ere observed during the […]
show significant differences with the results obtained in the PBS treated group of control mice.
Statistical analysis: Means were compared by Student’s t test, and mortality was compared by Fisher’s exact test, where applicable.
Ethics regulation of Laboratory animals: Animals were housed in facilities approved by the Association for Assessment and Accreditation of Laboratory Animal Care and Use Committee
2. Toxicity evaluation of DAB-Am-4 in mice.
A toxicity screen in uninfected mice was performed. 2 doses of 5 and 25 mg/kg/day were administered twice daily IP for 4 days (n=6/group). A control group was treated with the vehicle […]
The mice were examined daily and the weights and general condition were recorded. […]

[3] = mice, 25 mg/kg/day twice daily IP, 4 days
[4] = mice, 5 mg/kg/day twice daily IP, 4 days

RRRRR [Arg^5+]
CC50 at 7 days [1]: 83 µM

NCCCN(CCCN)CCCCN(CCCN)CCCN [DAB-Am-4]
weight loss [2, 3]: ~ 10% | weight loss from baseline [2, 3]: 2.0 g | tolerability ([2]; mice, 5, 10 and 25 mg/kg/day, twice daily IP, 4 days): tolerated well | signs of acute toxicity (lab tests) ([2]; mice, 5 and 25 mg/kg/day DAB-Am-4, 5 mg/kg/day DAB-Am-8): no conclusive signs of acute toxicity | signs of distress during the observation period ([2]; mice, low dose 5 mg/kg/day): no significant signs | %Lymphocyte [2, 4]: 67% | Hematocrit [2, 4]: 43 | WBC [2, 4]: 7 | AST [2, 4]: 402 | Alb:Glob Ratio [2, 4]: 1 | Albumin [2, 4]: 3 | Amylase [2, 4]: 792 | Bile Acids [2, 4]: 134 | Cholesterol [2, 4]: 91 | Creatine Kinase [2, 4]: 2340 | GGT [2, 4]: < 1 | Globin [2, 4]: 2 | Total Protein [2, 4]: 5 | Triglyceride [2, 4]: 118 | BUN [2, 4]: 35 | Ca:Phos Ratio [2, 4]: 1 | Calcium [2, 4]: 9 | Chloride [2, 4]: 104 | Glucose [2, 4]: 221 | K [2, 4]: 7 | Na [2, 4]: 143 | Na:K Ratio [2, 4]: 22 | Phosphorus [2, 4]: 11 | Uric Acid [2, 4]: 3 | %Lymphocyte [2, 3]: 61% | Hematocrit [2, 3]: 36 | WBC [2, 3]: 4 | AST [2, 3]: 414 | Alb:Glob Ratio [2, 3]: 1 | Albumin [2, 3]: 3 | Amylase [2, 3]: 760 | Bile Acids [2, 3]: 13 | Cholesterol [2, 3]: 85 | Creatine Kinase [2, 3]: 3089 | GGT [2, 3]: < 1 | Globin [2, 3]: 2 | Total Protein [2, 3]: 5 | Triglyceride [2, 3]: 149 | BUN [2, 3]: 36 | Ca:Phos Ratio [2, 3]: 1 | Calcium [2, 3]: 9 | Chloride [2, 3]: 106 | Glucose [2, 3]: 182 | K [2, 3]: 6 | Na [2, 3]: 147 | Na:K Ratio [2, 3]: 25 | Phosphorus [2, 3]: 9 | Uric Acid [2, 3]: 5
